The source of these data is ChEMBL document CHEMBL6153094, “Rationally designed highly amphipathic antimicrobial peptides demonstrating superior bacterial selectivity relative to the corresponding α-helix peptide” (Eur J Med Chem, 2025).

Series [1] can be described thus: Toxicity in male Balb/c mouse assessed as inflammatory cell infiltration in lungs at 22.48 mg/kg, ip administered for 7 days by H and E staining based analysis. To be noted: in vivo, 168 h, time 7 day. Type of series: organism-based.
A short description of series [2]: Acute toxicity in male Balb/c mouse assessed as animal death at 30 mg/kg, ip measured within 30 mins. Type of series: organism-based. The settings on record: in vivo, 0.5 h.
Series [3] is described as follows: Toxicity in male Balb/c mouse assessed as lethal dose administered intraperitoneally for 7 days. To be noted: in vivo, route ip, time 7 day.
The nature of series [4]: Toxicity in male Balb/c mouse assessed as alveolar septum thickening at 22.48 mg/kg, ip administered for 7 days by H and E staining based analysis. Type of series: organism-based. The settings on record: in vivo, 168 h, time 7 day.
Series [5] can be described thus: Toxicity in male Balb/c mouse assessed as lung bubble contraction at 22.48 mg/kg, ip administered for 7 days by H and E staining based analysis. Type of series: organism-based. To be noted: in vivo, 168 h, time 7 day.
The nature of series [6]: Toxicity in male Balb/c mouse assessed as balloon-like degeneration in liver at 22.48 mg/kg, ip administered for 7 days by H and E staining based analysis. Type of series: organism-based. The settings on record: in vivo, 168 h, time 7 day.
A short description of series [7]: Toxicity in male Balb/c mouse assessed as edema in liver at 22.48 mg/kg, ip administered for 7 days by H and E staining based analysis. Type of series: organism-based. To be noted: in vivo, 168 h, time 7 day.
Series [8] can be described thus: Toxicity in male Balb/c mouse assessed as hemorrhage in liver at 22.48 mg/kg, ip administered for 7 days by H and E staining based analysis. Type of series: organism-based. To be noted: in vivo, 168 h, time 7 day.
In series [9] the test system is Pseudomonas aeruginosa. In words: Resistance fold, ratio of MIC for Pseudomonas aeruginosa ATCC 27853 measured after 20 passages to MIC for Pseudomonas aeruginosa ATCC 27853 measured immediately. Type of series: functional.
A further series deals with Bacillus subtilis. Nature of the series: Antimicrobial activity against Bacillus subtilis ATCC 23857 assessed as inhibition of visible bacterial growth incubated for 18 hrs by broth microdilution method. Type of series: functional.
Series [10] has as its system Pseudomonas aeruginosa. In words: Antibacterial activity against Pseudomonas aeruginosa ATCC 27853 assessed as fold change in MIC incubated for 18 hrs in presence of FeCl3 by Mueller-Hinton broth based assay. Type of series: functional.
Series [11] deals with Pseudomonas aeruginosa. Nature of the series: Antibacterial activity against Pseudomonas aeruginosa ATCC 27853 assessed as fold change in MIC incubated for 18 hrs in presence of ZnCl2 by Mueller-Hinton broth based assay. Type of series: functional.
Series [12] concerns Pseudomonas aeruginosa. Nature of the series: Antibacterial activity against Pseudomonas aeruginosa ATCC 27853 assessed as fold change in MIC incubated for 18 hrs in presence of KCl by Mueller-Hinton broth based assay. Type of series: functional.
In series [13] the test system is Staphylococcus aureus. Nature of the series: Antibiofilm activity in Staphylococcus aureus ATCC 25923 assessed as inhibition of biofilm formation at 1/2 times of MIC incubated for 24 hrs by crystal violet staining based analysis relative to control. Type of series: functional.
For the next series, the system named is Enterococcus faecalis. Nature of the series: Antimicrobial activity against Enterococcus faecalis ATCC 29212 assessed as inhibition of visible bacterial growth incubated for 18 hrs by broth-dilution method. Type of series: functional.
The next series has as its system Klebsiella pneumoniae. In words: Antimicrobial activity against Klebsiella pneumoniae ATCC 700603 assessed as inhibition of visible bacterial growth incubated for 18 hrs by broth microdilution method. Type of series: functional.
In series [14] the test system is Pseudomonas aeruginosa. Nature of the series: Antibacterial activity against Pseudomonas aeruginosa ATCC 27853 assessed as fold change in MIC incubated for 18 hrs in presence of MgCl2 by Mueller-Hinton broth based assay. Type of series: functional.
For series [15], the system named is Staphylococcus aureus. In words: Antibacterial activity against Staphylococcus aureus ATCC 25923 assessed as fold change in MIC incubated for 18 hrs in presence of MgCl2 by Mueller-Hinton broth based assay. Type of series: functional.
The test system of series [16] is Staphylococcus aureus. Nature of the series: Antibacterial activity against Staphylococcus aureus ATCC 25923 assessed as fold change in MIC incubated for 18 hrs in presence of KCl by Mueller-Hinton broth based assay. Type of series: functional.
The subject of series [17] is Staphylococcus aureus. In words: Resistance fold, ratio of MIC for Staphylococcus aureus ATCC 25923 measured after 20 passages in presence of gentamicin to MIC for Staphylococcus aureus ATCC 25923 measured immediately in presence of gentamicin. Type of series: functional.
Series [18] concerns Staphylococcus aureus. In words: Antibacterial activity against Staphylococcus aureus ATCC 25923 assessed as fold change in MIC incubated for 18 hrs in presence of NaCl by Mueller-Hinton broth based assay. Type of series: functional.
Series [19] relates to Staphylococcus aureus. Nature of the series: Synergistic antimicrobial activity against gentamicin-resistant Staphylococcus aureus ATCC 25923 assessed as fractional inhibitory concentration index incubated for 18 hrs in presence of gentamicin by checkerboard microdilution method. Type of series: functional. (Broth dilution looks for growth in wells or tubes with falling amounts of substance.)

The test system of a further series is Acinetobacter baumannii. In words: Antimicrobial activity against Acinetobacter baumannii ATCC 19606 assessed as inhibition of visible bacterial growth incubated for 18 hrs by broth microdilution method. Type of series: functional.
Series [20] deals with Pseudomonas aeruginosa. In words: Resistance fold, ratio of MIC for Pseudomonas aeruginosa ATCC 27853 measured after 20 passages in presence of gentamicin to MIC for Pseudomonas aeruginosa ATCC 27853 measured immediately in presence of gentamicin. Type of series: functional.
The test system of series [21] is Pseudomonas aeruginosa. In words: Additive antimicrobial activity against gentamicin-resistant Pseudomonas aeruginosa ATCC 27853 assessed as fractional inhibitory concentration index incubated for 18 hrs in presence of gentamicin by checkerboard microdilution method. Type of series: functional.
For series [22], the system named is Staphylococcus aureus. Nature of the series: Antibacterial activity against Staphylococcus aureus ATCC 25923 assessed as fold change in MIC incubated for 18 hrs in presence of ZnCl2 by Mueller-Hinton broth based assay. Type of series: functional.
Series [23] relates to Staphylococcus aureus. Nature of the series: Antimicrobial activity against methicillin-drug resistant Staphylococcus aureus ATCC 33591 assessed as concentration required to eliminate 90% bacteria incubated for 18 hrs by broth-microdilution method. Type of series: functional.
Another series relates to Escherichia coli. Nature of the series: Antimicrobial activity against Escherichia coli ATCC 25922 assessed as inhibition of visible bacterial growth incubated for 18 hrs by broth microdilution method. Type of series: functional.
Series [24] has as its system Staphylococcus aureus. Nature of the series: Antibiofilm activity in Staphylococcus aureus ATCC 25923 assessed as inhibition of biofilm formation at 4 times of MIC incubated for 24 hrs by crystal violet staining based analysis relative to control. Type of series: functional.
Series [25] concerns Pseudomonas aeruginosa. Nature of the series: Antibiofilm activity in Pseudomonas aeruginosa ATCC 27853 assessed as inhibition of biofilm formation at 1 times of MIC incubated for 24 hrs by crystal violet staining based analysis relative to control. Type of series: functional.
Series [26] deals with Staphylococcus epidermidis. In words: Antimicrobial activity against Staphylococcus epidermidis ATCC 12228 assessed as inhibition of visible bacterial growth incubated for 18 hrs by broth-dilution method. Type of series: functional.
Series [27] relates to Staphylococcus aureus. Nature of the series: Antibiofilm activity in Staphylococcus aureus ATCC 25923 assessed as inhibition of biofilm formation at 2 times of MIC incubated for 24 hrs by crystal violet staining based analysis relative to control. Type of series: functional.
Series [28] deals with Pseudomonas aeruginosa. In words: Antibacterial activity against Pseudomonas aeruginosa ATCC 27853 assessed as fold change in MIC incubated for 18 hrs in presence of NaCl by Mueller-Hinton broth based assay. Type of series: functional.
For series [29], the system named is Staphylococcus aureus. Nature of the series: Resistance fold, ratio of MIC for Staphylococcus aureus ATCC 25923 measured after 20 passages to MIC for Staphylococcus aureus ATCC 25923 measured immediately. Type of series: functional.
For series [30], the system named is Staphylococcus aureus. In words: Antimicrobial activity against Staphylococcus aureus ATCC 25923 assessed as inhibition of visible bacterial growth incubated for 18 hrs by broth-dilution method. Type of series: functional.
Series [31] has as its system Pseudomonas aeruginosa. Nature of the series: Antimicrobial activity against Pseudomonas aeruginosa ATCC 27853 assessed as inhibition of visible bacterial growth incubated for 18 hrs by broth microdilution method. Type of series: functional.
Series [32] has as its system Staphylococcus aureus. In words: Antibacterial activity against Staphylococcus aureus ATCC 25923 assessed as fold change in MIC incubated for 18 hrs in presence of FeCl3 by Mueller-Hinton broth based assay. Type of series: functional.
For series [33], the system named is Staphylococcus aureus. In words: Antibiofilm activity in Staphylococcus aureus ATCC 25923 assessed as inhibition of biofilm formation at 1 times of MIC incubated for 24 hrs by crystal violet staining based analysis relative to control. Type of series: functional.

Where a SMILES comes first, the peptide text is derived from it. Bridges are numbered along the chain shown (N, C = ends). [ ]: non-standard residue; d: D form. The star is where a group is joined. X1 = CC[C@H](C)CCCCC(=O)*; Dab = NCC[C@H](N)C(=O)O Where only a bound is given, the exact number is not on record here.

`CC(C)CCCCC(=O)N[C@@H](CCN)C(=O)N[C@H](C(=O)N[C@@H](CCN)C(=O)N[C@H]1CCNC(=O)[C@H]([C@@H](C)O)NC(=O)[C@H](CCN)NC(=O)[C@H](CCN)NC(=O)[C@H](CC(C)C)NC(=O)[C@@H](Cc2ccccc2)NC(=O)[C@H](CCN)NC1=O)[C@@H](C)O.CC[C@H](C)CCCCC(=O)N[C@@H](CCN)C(=O)N[C@H](C(=O)N[C@@H](CCN)C(=O)N[C@H]1CCNC(=O)[C@H]([C@@H](C)O)NC(=O)[C@H](CCN)NC(=O)[C@H](CCN)NC(=O)[C@H](CC(C)C)NC(=O)[C@@H](Cc2ccccc2)NC(=O)[C@H](CCN)NC1=O)[C@@H](C)O` (X1-[Dab]T[Dab][Dab][Dab][dF]L[Dab][Dab]T; lactam 4-C) [listing 1 of 2 here]: the Activity result in series [1], in [2], in series [4], in series [5], in [6] and in series [7] was “Toxic” in each case. In series [8], the Activity result was “Toxic”. In [3], the LD50 (as a rule, the dose expected to kill half of the subjects tested) at 168 h is 22.5 mg/kg.

With `CC(C)CCCCC(=O)N[C@@H](CCN)C(=O)N[C@H](C(=O)N[C@@H](CCN)C(=O)N[C@H]1CCNC(=O)[C@H]([C@@H](C)O)NC(=O)[C@H](CCN)NC(=O)[C@H](CCN)NC(=O)[C@H](CC(C)C)NC(=O)[C@@H](Cc2ccccc2)NC(=O)[C@H](CCN)NC1=O)[C@@H](C)O.CC[C@H](C)CCCCC(=O)N[C@@H](CCN)C(=O)N[C@H](C(=O)N[C@@H](CCN)C(=O)N[C@H]1CCNC(=O)[C@H]([C@@H](C)O)NC(=O)[C@H](CCN)NC(=O)[C@H](CCN)NC(=O)[C@H](CC(C)C)NC(=O)[C@@H](Cc2ccccc2)NC(=O)[C@H](CCN)NC1=O)[C@@H](C)O` (X1-[Dab]T[Dab][Dab][Dab][dF]L[Dab][Dab]T; lactam 4-C) [listing 2 of 2 here], the “fold change (FC)” value is listed as 8 with Pseudomonas aeruginosa [9]; “<=2” in the series with Pseudomonas aeruginosa [10]; “<=2” with Pseudomonas aeruginosa [11]; “<=2” in the series on Pseudomonas aeruginosa [12]; “<=2” in the series on Pseudomonas aeruginosa [14]; “<=2” with Staphylococcus aureus [15]. The “fold change (FC)” value in the series with Staphylococcus aureus [16] is reported as “<=2”; in the series on Staphylococcus aureus [17], 8; in the series with Staphylococcus aureus [18], 8; in the series on Pseudomonas aeruginosa [20] it was 8; with Staphylococcus aureus [22], “<=2”; in the series on Pseudomonas aeruginosa [28] it was 2. Besides, the “fold change (FC)” value in the series with Staphylococcus aureus [29] is 4; in the series on Staphylococcus aureus [32] it was “<=2”. In addition, the MIC (as a rule, the lowest concentration that inhibits growth of the organism) with Bacillus subtilis is 8 µM; with Enterococcus faecalis, 128 µM; with Klebsiella pneumoniae, less than 1 µM; in the series on Acinetobacter baumannii it was less than 1 µM; in the series on Escherichia coli it was less than 1 µM; in series [26] it was 8 µM. Further, the MIC is 16 µM in the series on Staphylococcus aureus [30] and less than 1 µM in the series with Pseudomonas aeruginosa [31]. Moreover, the “inhibition (INH)” value in the series on Staphylococcus aureus [13] is listed as 55%; in the series with Staphylococcus aureus [24], approximately 80%; in the series with Pseudomonas aeruginosa [25] it was more than 90%; with Staphylococcus aureus [27], approximately 80%; with Staphylococcus aureus [33], 75%. The “fractional inhibitory concentration index (FICI)” value with Staphylococcus aureus [19] was determined as 0.375; in the series with Pseudomonas aeruginosa [21] it was 0.563. Besides, the EC90 – broadly, the concentration at which the effect reaches the 90% level – with Staphylococcus aureus [23] worked out at 11.1 µM.
